Source: patent US5476874A, “New HIV protease inhibitors” (Merck & Co., Inc., priority 1994, dated 1995)

Biological target: T1, HIV protease (Human immunodeficiency virus type 1 group M subtype B, UniProt P04585)
T1 construct: the protease expressed in Escherichia coli; made in house; host or cells: Escherichia coli
Test: Assay for Inhibition of Microbial Expressed HIV Protease
Format: biochemical
Conditions: protease expressed in Escherichia coli; peptide substrate Val-Ser-Gln-Asn-(betanaphthyl)Ala-Pro-Ile-Val; 50 mM Na acetate, pH 5.5, 30° C., 1 hour; HPLC readout
Experimental: Assay for Inhibition of Microbial Expressed HIV Protease
Inhibition studies of the reaction of the protease expressed in Escherichia coli with a peptide substrate [Val-Ser-Gln-Asn-(betanaphthyl)Ala-Pro-Ile-Val, 0.5 mg/mL at the time the reaction is initiated] were in 50 mM Na acetate, pH 5.5, at 30° C. for 1 hour. Various concentrations of inhibitor in 1.0 ul DMSO were added to 25 ul of the peptide solution in water. The reaction is initiated by the addition of 15 ul of 0.33 nM protease […] in a solution of 0.133 M Na acetate pH 5.5 and 0.26% bovine serum albumin. The reaction was quenched with 160 ul of 5% phosphoric acid. Products of the reaction were separated by HPLC (VYDAC wide pore 5 cm C-18 reverse phase, acetonitrile gradient, 0.1% phosphoric acid). The extent of inhibition of the reaction was determined from the peak heights of the products.

- IC50: 8 to 9 nM
SMILES: CC(C)CN(CC(O)CC(Cc1ccccc1)C(=O)NC1c2ccccc2CC1O)C(=O)OCc1ccccc1 [Compound A, N-(2'(R)-hydroxy-1'(S)-indanyl)-2(R)-phenylmethyl-4(S)-hydroxy-5-[((2'''-methyl)propyl)-benzyloxycarbonyl]-amino-pentaneamide]
